Source: paper PMC8161015, “Antiplatelet Activity of Coumarins: In Vitro Assays on COX-1” (Molecules, 2021)
pIC50: −log10 of the molar value.

Biological target: T1, COX-1 (Homo sapiens, UniProt P23219)
T1 construct: gene PTGS1; pure human recombinant enzyme (h-COX-1)
Test: colorimetric TMPD oxidation assay with purified human COX-1, arachidonic acid substrate
Assay type: biochemical

T1 sequence (P23219 24-599): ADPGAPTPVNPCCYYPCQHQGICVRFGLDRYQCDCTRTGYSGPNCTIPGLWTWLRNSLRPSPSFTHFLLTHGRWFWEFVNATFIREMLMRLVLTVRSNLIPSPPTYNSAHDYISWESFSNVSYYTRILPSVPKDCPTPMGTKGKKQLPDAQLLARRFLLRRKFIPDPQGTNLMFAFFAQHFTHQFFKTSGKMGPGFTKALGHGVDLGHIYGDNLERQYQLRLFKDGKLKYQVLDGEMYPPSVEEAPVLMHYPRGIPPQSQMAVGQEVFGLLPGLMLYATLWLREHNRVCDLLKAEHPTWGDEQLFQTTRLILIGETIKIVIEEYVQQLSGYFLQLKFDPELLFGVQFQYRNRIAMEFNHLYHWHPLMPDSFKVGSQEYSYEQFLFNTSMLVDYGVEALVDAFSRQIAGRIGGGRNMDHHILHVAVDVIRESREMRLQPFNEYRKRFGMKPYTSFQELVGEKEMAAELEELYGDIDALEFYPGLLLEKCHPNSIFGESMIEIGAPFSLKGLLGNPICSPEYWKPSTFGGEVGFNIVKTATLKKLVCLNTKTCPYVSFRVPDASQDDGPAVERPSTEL

Structure (SMILES): O=c1ccc2cc(O[C@@H]3O[C@H](CO)[C@@H](O)[C@H](O)[C@H]3O)c(O)cc2o1 [a, 7-hydroxy-6-[(2 S, 3 R, 4 S, 5 S, 6 R)-3,4,5-trihydroxy-6-(hydroxymethyl)oxane-2-yl] oxychromen-2-one]
- pIC50: 2.35
